Laboratory results reported in patent publication US20170232083A1, “METHODS OF DIAGNOSIS AND TREATMENT OF CELIAC DISEASE IN CHILDREN” (priority 2014, published 2017).

Assays:
[1] = test system: PBMC from newly diagnosed / untreated CD children; settings: Liu et al.; cited from earlier work
[2] = test system: PBMC (polyclonal gluten-specific T cells) of paediatric and adult CD patients; test: IFN-γ ELISpot of PBMC after 3 day oral wheat challenge (SFU, % of maximal peptide response, dominance scores, EC50; Examples 5-6); type: cell-based, human; settings: for IFN-γ ELISpot response: after oral wheat challenge
[3] = test system: PBMC (polyclonal gluten-specific T cells) of paediatric and adult CD patients; settings: corresponding adult data shown for comparison (14); cited from earlier work

**Q.** Which “individual CD children with responses” value [1] does the source give for PQPELPYPQ [DQ2.5-glia-α2] here?
**A.** The value was 0/10.

**Q.** With PFPQPELPY [DQ2.5-glia-α1a] as the sequence, how does the “individual CD children with responses” value [1] read?
**A.** The value was 3/10.

**Q.** Which results are given for LPYPQPELPYPQP [Peptide W01]?
**A.** Dominance score 3-5yrs (n = 9) ([2]; CD children 3-5yrs, n = 9, following wheat challenge, mean percentage of maximal peptide response): 68.5; Dominance score 6-10yrs (n = 10) ([2]; CD children 6-10yrs, n = 10, following wheat challenge, mean percentage of maximal peptide response): 71.7; Dominance score 11-18yrs (n = 11) ([2]; CD children 11-18yrs, n = 11, following wheat challenge, mean percentage of maximal peptide response): 51.0; Dominance score Mean all ages ([2]; CD children, all ages, following wheat challenge (Table 9)): 62.6; dominance hierarchy across all age groupings ([2]; Example 5): most dominant three peptides; dominance hierarchy across all age groups ([2]; Example 6): most dominant four peptides; Dominance scores 3-5 yrs ([2]; children with celiac disease 3-5 yrs after wheat challenge (Table 14)): 65; Dominance scores 6-10 yrs ([2]; children with celiac disease 6-10 yrs after wheat challenge (Table 14)): 72; Dominance scores 11-18 yrs ([2]; children with celiac disease 11-18 yrs after wheat challenge (Table 14)): 51; Dominance scores Mean all ages ([2]; mean of all subjects (Table 14)): 62; IFN-γ ELISpot response ([2]; patient A, 11-17 yrs, cut-off 10 SFU): 2 SFU; Significant response as percentage of maximal peptide SFU ([2]; patient D, max peptide 30.5 SFU): ′′ (21-40% = ′′); IFN-γ ELISpot response ([2]; patient E, H, 11-17 yrs, cut-off 10 SFU): 111 SFU; Significant response as percentage of maximal peptide SFU ([2]; patient E, max peptide 224 SFU): ′′′ (41-70% = ′′′); IFN-γ ELISpot response ([2]; patient F, 11-17 yrs, cut-off 10 SFU): 161 SFU; Significant response as percentage of maximal peptide SFU ([2]; patient F, max peptide 178 SFU): + (>70% = +); IFN-γ ELISpot response ([2]; patient G, 11-17 yrs, cut-off 10 SFU): 7 SFU; IFN-γ ELISpot response ([2]; patient H (HLA-DQ2.5 homozygote), 3-5yrs, cut-off 10 SFU): 33 SFU; IFN-γ ELISpot response ([2]; patient H, 11-17 yrs, cut-off 10 SFU): 10 SFU; Significant response as percentage of maximal peptide SFU ([2]; patient H, max peptide 17 SFU): ′′′ (41-70% = ′′′); IFN-γ ELISpot response ([2]; patient ID not given, 11-17 yrs, cut-off 10 SFU): 62 SFU; Significant response as percentage of maximal peptide SFU ([2]; patient ID not given, max peptide 95 SFU): ′′′ (41-70% = ′′′); Significant response as percentage of maximal peptide SFU ([2]; patient II, max peptide 15 SFU): + (>70% = +); Significant response as percentage of maximal peptide SFU ([2]; patient J, max peptide 196 SFU): + (>70% = +); Significant response as percentage of maximal peptide SFU ([2]; patient K, max peptide 53 SFU): + (>70% = +); Significant response as percentage of maximal peptide SFU ([2]; patient L, max peptide 11 SFU): + (>70% = +); Significant response as percentage of maximal peptide SFU ([2]; patient M, max peptide 48 SFU): ′′′ (41-70% = ′′′); IFN-γ ELISpot response ([2]; patient N, 3-5yrs, cut-off 10 SFU): 6 SFU; IFN-γ ELISpot response ([2]; patient P, 11-17 yrs, cut-off 21.6 SFU): 36 SFU; Significant response as percentage of maximal peptide SFU ([2]; patient P, max peptide 64 SFU): ′′′ (41-70% = ′′′); IFN-γ ELISpot response ([2]; patient Q, 11-17 yrs, cut-off 10 SFU): 78 SFU; Significant response as percentage of maximal peptide SFU ([2]; patient Q, max peptide 97 SFU): + (>70% = +); IFN-γ ELISpot response ([2]; patient U, H, 11-17 yrs, cut-off 10 SFU): 44 SFU; Significant response as percentage of maximal peptide SFU ([2]; patient U, max peptide 81 SFU): ′′′ (41-70% = ′′′); IFN-γ ELISpot response ([2]; patient V, 6-10 yrs, cut-off 10 SFU): 35 SFU; Significant response as percentage of maximal peptide SFU ([2]; patient V, max peptide 35 SFU): + (>70% = +); IFN-γ ELISpot response ([2]; patient Y, 6-10 yrs, cut-off 10 SFU): 16 SFU; Significant response as percentage of maximal peptide SFU ([2]; patient Y, max peptide 16 SFU): + (>70% = +); IFN-γ ELISpot response ([2]; patient eleven, 6-10 yrs, cut-off 10 SFU): 45 SFU; Significant response as percentage of maximal peptide SFU ([2]; patient eleven, max peptide 57 SFU): + (>70% = +); Significant response as percentage of maximal peptide SFU ([2]; patient five, max peptide 48 SFU): ′′′ (41-70% = ′′′); IFN-γ ELISpot response ([2]; patient four, 3-5yrs, cut-off 10 SFU): 44 SFU; Significant response as percentage of maximal peptide SFU ([2]; patient four, max peptide 44 SFU): + (>70% = +); IFN-γ ELISpot response ([2]; patient seven, 6-10 yrs, cut-off 10.5 SFU): 3 SFU; IFN-γ ELISpot response ([2]; patient ten, 3-5yrs, cut-off 10 SFU): 9 SFU; IFN-γ ELISpot response ([2]; patient three, 6-10 yrs, cut-off 10.5 SFU): 196 SFU; IFN-γ ELISpot response ([2]; patient twelve, 11-17 yrs, cut-off 10 SFU): 12 SFU; IFN-γ ELISpot response ([2]; patient two, 3-5yrs, cut-off 10 SFU): 33 SFU; Significant response as percentage of maximal peptide SFU ([2]; patient two, max peptide 60 SFU): ′′′ (41-70% = ′′′); Dominance scores 18+ yrs [3]: 69
